Experimental data: patent US6207644A, “Peptide analogues containing a 7-membered lactam ring” (Zeneca Limited, priority 1996, dated 2001)

Key:
[1] = Aqueous stability of peptide in McIlvaine's buffer; type: physicochemical
Protocol: A typical procedure for measuring the stability of a peptide compound of the present invention is as follows, in which, to minimize microbial contamination and degradation, all equipment that is used to prepare peptide solutions is sterilized in an autoclave and all material transfers carried out in a Class II laminar flow cabinet. Approximately 20 ml of McIlvaine's citric acid-phosphate buffer solution at pH 3 or 7.6 containing 0.02% sodium azide is filtered into a 50 ml bottle using a sterile […] filter unit and a 20 ml syringe. Approximately 1.2 mg of peptide is accurately weighed in a capped vial. Using a sterile pipette tip, sufficient buffer solution is added to the peptide in the vial to give a peptide concentration of 0.1 mg/ml. The vial is capped and shaken to dissolve the peptide. Using a sterile pipette tip, aliquots of approximately 1 ml of the peptide solution are transferred to 10 HPLC vials, which are then capped. 5 vials are stored at -18 and 37° C. The area of the peptide peak for the solution is determined by HPLC using appropriate standards initially and after storage at -18 and 37° C. for 1, 2, 3 and 4 weeks, using a fresh vial at each time point with duplicate sample injections. The percentage of peptide remaining after storage at 37° C. at each time point is determined from the ratio of the area of the peptide peak at each time point to the initial area. […]

HLA-DR3 = experiment: Variant to Test A: peptide selectivity binding assay, HLA-DR3; parameters: species or system human; conditions: no significant binding
Protocol: (§1) As a varient to test A, the ability of a peptide of the invention to bind to one or more HLA-DR molecules was assessed as follows:
(§2) The method used was a modification of that described by Gorga et al, 1987, J.Biol.Chem. 262, 16087-16094. Human HLA-DR antigens were purified from various cell lines by immunoaffinity chromatography. […] Protein content was determined by a Biorad protein assay and purity by SDS-PAGE electrophoresis.
(§3) 200 nM biotin-FHA307-320 in phosphate buffered saline (PBS) was incubated with either purified HLA-DR1, DR2, DR4Dw4, DR4Dw13 or DR4Dw14 (2-20 μg/ml) in V-well microtitre plates (Nunc) with or without inhibitor peptides in assay buffer (PBS, 0.01% NP40 (Sigma.)) For DR3 inhibition, 400 nM Biotin-Ahx-(D)Ala-Ala-Ala-Che-Ile-Ala-Ala-Ala-Thr-Leu-Lys-Ala-Ala-(D)Ala-OH (SEQ ID NO:25) was incubated with purified DR3 (20 μg/ml), and incubated as above. After 48 hours, the incubates were treated, and absorbance readings taken as described in Test A. The inhibitory activity of peptides, expressed as IC50 values, was calculating using Microcal Origin software on a PC.

HLA-DR2 = experiment: Variant to Test A: peptide selectivity binding assay, HLA-DR2; parameters: species or system human
Protocol: as §1, §2, §3

HLA-DR4Dw4 = target: T1, HLA-DR4Dw4 (Homo sapiens, UniProt P01903+P01911, A100K/A169T/F76Y/I96L/K127E/L162R/M171V/N62H/P40V/Q125Y/R42H/S133A/S149N/S66Y/V115G/V209L/W38E); experiment: Test A: purified HLA-DR peptide in vitro binding assay (or its variant)
T1 construct: made in house; host or cells: double-recombinant baculovirus in Sf21 insect cells (Test A), or the human JAH cell line (variant to Test A)
Protocol: Purified HLA-DR peptide in vitro binding assay. […]. At the end of the incubation period 100 μl of the incubate is transferred to Enzyme Linked ImmunoSorbant Assay (ELISA) plates (Nunc) previously coated with an anti-MHC antibody (L243-American Type Culture Collection (ATCC) HB55 as described in Lampson and Levy (1980) J. Immunol. 125, 293-299) at a concentration of 10 μg/ml for 1 hour at room temperature and blocked thereafter for 1 hour with 1% bovine serum albumin (BSA) in PBS and 0.05% Tween 20. […] The reaction is stopped by adding 2M sulphuric acid (10 μl per well) and the absorbance read at 450 nm to quantify the amount of peptide bound. The inhibitory activity of peptides is obtained by plotting absorbance against concentration. […]
To create the double-recombinant baculovirus, a cDNA encoding the β chain is cloned into the transfer vector pAcUW1 [Weyer, U; Knight, S & Possee, R D (1990) J. Gen. […] Double-recombinant viruses are detected by spotting insecT-cells, infected with randomly picked viruses from the transfection,onto membranes and reacting them with a monoclonal antibody e.g. L243 which specifically recognises the HLA-DR heterodimer. Binding of the antibody to Sf21 insecT-cells is detected using standard flow cytometry techniques, readily available in the literature. […]

[2] = Loss of peptide due to degradation on extrusion of polymer depot formulation; type: physicochemical; conditions: in the form of a polymer depot formulation
Protocol: Typical procedures for measuring the level of degradation of a peptide compound of the present invention are as follows:
About 20 mg of peptide is accurately weighed and sufficient polymer (50/50% molar poly(D,L-lactic acid/glycolic acid) copolymer of approximate weight average molecular weight 20 kD and approximate polydispersity of 1.7 as determined by size exclusion chromatography relative to polystyrene standards) added to produce an approximate 20% w/w mixture. This is dissolved in anhydride-free glacial acetic acid to produce an approximate 10% w/v solution. The solution is freeze dried and the resulting freeze dried product is stored under vacuum prior to use.
About 100 mg of freeze dried material is loaded into the barrel of a small laboratory extruder and the plunger pushed down to consolidate the sample. […]
Each standard is filtered through a 5 μm Millex PTFE filter and an aliquot of filtrate, together with aliquots of the solutions A, analysed by HPLC using duplicate sample injections. The peptide content of the extruded polymer depot formulation of peptide is calculated from the concentration of peptide in solutions A, which is determined by comparing the area of the peptide peak in solutions A with the area of the peptide peak from the standard solutions.

BALB/C mice = experiment: Test C: peptide stimulated DTH (delayed type hypersensitivity) in BALB/C mice; type: in vivo; conditions: osmotic mini-pump
Protocol: Peptide stimulated DTH (delayed type hypersensitivity) in BALB/C mice. […] Balb/c female mice (18-20 g), 5 per group, were immunised sub-cutaneously on the flank with 0.1 ml of an emulsion of ovalbumin (Sigma) (2 mg/ml in saline) mixed 1:1 (v/v) with complete Freunds adjurant (Sigma). Seven days later footpad thickness was detemined using a dual caliper micrometer followed by a challenge in one hind footpad with a 30 μl sub-plantar injection of 1% heat-aggregated ovalbumin protein in saline. Twenty-four hours after antigen challenge, footpads were measured and the DTH response calculated as the percentage increase in footpad thickness in the injected footpad compared to contralateral control. Inhibitors were adminstered by 3-day osmotic mini-pumps (Alzet) implanted 24 hours prior to antigen challenge at doses ranging from 10 mg/kg/day to 0.1 μg/kg/day. The degree of inhibition was calculated by substracting the value for swelling of inhibitor treated footpads from that of the vehicle dosed controls, dividing by the control value and multiplying by 100%.

[3] = Degradation of peptide on in vitro release from an extruded polymer depot; type: physicochemical; conditions: in the form of a polymer depot formulation
Protocol: A solution of McIlvaine's citric acid-phosphate buffer solution at pH 7.6 containing 0.02% sodium azide, is filtered through a 0.22μ filter and stored at 4° C. Approximately 10 mg of extruded polymer depot containing peptide is placed in two small vials and 2 ml of the buffer solution added. The vials are then capped and stored in a water bath at 37° C. for a month. At suitable time points over a month, three 0.6 ml aliquots of release medium are removed from each vial and either analysed by HPLC or stored frozen in an HPLC vial at -18° C. prior to analysis by HPLC. 1.8 ml of the buffer solution is added to each vial containing the depot to replace the release medium that has been removed at each time point.
The average amount of intact peptide in the release medium at each time point is determined by HPLC using duplicate sample injections by comparing the area of the peptide peak in the release media with the area of the peptide peak from standard buffer solutions of peptide at known concentrations. The approximate average amount of peptide degradation products in the release media at each time point is determined by HPLC by comparing the area of additional new peaks in the release media with the area of the peptide peak from standard buffer solutions of peptide at known concentrations and assuming the extinction coefficient has not changed. […]

HLA-DR1 = experiment: Variant to Test A: peptide selectivity binding assay, HLA-DR1; parameters: species or system human
Protocol: as §1, §2, §3

C[C@H](NC(=O)CN1CCCC[C@H](NC(=O)[C@H](C)NC(=O)[C@H](C)NC(=O)[C@H](CCCNC(=N)N)NC(=O)CCCCc2ccccc2)C1=O)C(=O)N[C@@H](C)C(=O)N[C@@H](C)C(=O)Nc1ccc(CC(N)=O)cc1 [Example 1, Phv-Arg-Ala-Ala-IIb-Ala-Ala-Ala-Papa-NH2]
aqueous stability ([1]; pH3): good aqueous stability | aqueous stability ([1]; pH7.6): good aqueous stability | IC50 (HLA-DR3): > 100 µM | binding to HLA-DR2 (HLA-DR2): significant binding | concentration showing significant binding to HLA-DR4Dw4 (HLA-DR4Dw4): ≤ 0.1 µM | loss due to degradation on extrusion [2]: minimal loss due to degradation on extrusion | dose at which active in Test C (BALB/C mice): < 0.1 mg/kg/day | degradation on release from depot formulation [3]: minimal degradation on release | binding to HLA-DR1 (HLA-DR1): significant binding
